{"source": "PubChem BioAssay AID1918993", "about": "(Molecular Pharmacology Branch, DTP, NCI, 2023)", "system": "233499-124-R-J3-PDC complex spheroid growth", "assay": "Anticancer human tumor 233499-124-R-J3-PDC patient-derived colon adenocarcinoma cell line growth inhibition [AhR]", "details": "for pIC50: curve of first compound; for viability, T/C: stronger effect = lower value", "procedure,_shortened": "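Complex tumor spheroids co-cultured with HUVEC and human MSC stroma; AhR antagonists tested in combination with standard-of-care and investigational agents. Top concentration at or near clinical Cmax (else 10 microM), half-log dilutions; growth expressed as percent test/control.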", "note": "pIC50: −log10 of the molar value.", "data": [{"compound": "CC(C)CC(NC(=O)C(Cc1ccccc1)NC(=O)c1cnccn1)B(O)O", "note": "(stereo not given) + Cc1cncc(-c2nc(NCCc3c[nH]c4ccccc34)c3ncn(C(C)C)c3n2)c1;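 note: spheroids exposed to agents for seven days before reading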", "values": [{"measurement": "pIC50", "setting": "second compound 0.1 µM", "result": 7.81}, {"measurement": "pIC50", "setting": "second compound 0.316 µM", "result": 7.88}, {"measurement": "pIC50", "setting": "second compound 1 µM", "result": 7.88}, {"measurement": "pIC50", "setting": "second compound 3.16 µM", "result": 7.89}, {"measurement": "pIC50", "setting": "second compound 10 µM", "result": "> 9.02"}, {"measurement": "viability, T/C", "setting": "second compound 0.1 µM, first compound 0.000949 µM", "result": 98.3, "unit": "%"}, {"measurement": "viability, T/C", "setting": "second compound 0.1 µM, first compound 0.003 µM", "result": 95.1, "unit": "%"}, {"measurement": "viability, T/C", "setting": "second compound 0.1 µM, first compound 0.00949 µM", "result": 86.4, "unit": "%"}, {"measurement": "viability, T/C", "setting": "second compound 0.1 µM, first compound 0.03 µM", "result": 0.15, "unit": "%"}, {"measurement": "viability, T/C", "setting": "second compound 0.1 µM, first compound 0.0949 µM", "result": 0.05, "unit": "%"}, {"measurement": "viability, T/C", "setting": "second compound 0.1 µM, first compound 0.3 µM", "result": 0.13, "unit": "%"}, {"measurement": "viability, T/C", "setting": "second compound 0.316 µM, first compound 0.000949 µM", "result": 92, "unit": "%"}, {"measurement": "viability, T/C", "setting": "second compound 0.316 µM, first compound 0.003 µM", "result": 86.9, "unit": "%"}, {"measurement": "viability, T/C", "setting": "second compound 0.316 µM, first compound 0.00949 µM", "result": 70.9, "unit": "%"}, {"measurement": "viability, T/C", "setting": "second compound 0.316 µM, first compound 0.03 µM", "result": 0.12, "unit": "%"}, {"measurement": "viability, T/C", "setting": "second compound 0.316 µM, first compound 0.0949 µM", "result": 0.04, "unit": "%"}, {"measurement": "viability, T/C", "setting": "second compound 0.316 µM, first compound 0.3 µM", "result": 0.13, "unit": "%"}, {"measurement": "viability, T/C", "setting": "second compound 1 µM, first compound 0.000949 µM", "result": 92.1, "unit": "%"}, {"measurement": "viability, T/C", "setting": "second compound 1 µM, first compound 0.003 µM", "result": 89, "unit": "%"}, {"measurement": "viability, T/C", "setting": "second compound 1 µM, first compound 0.00949 µM", "result": 69.7, "unit": "%"}, {"measurement": "viability, T/C", "setting": "second compound 1 µM, first compound 0.03 µM", "result": 0.12, "unit": "%"}, {"measurement": "viability, T/C", "setting": "second compound 1 µM, first compound 0.0949 µM", "result": 0.05, "unit": "%"}, {"measurement": "viability, T/C", "setting": "second compound 1 µM, first compound 0.3 µM", "result": 0.13, "unit": "%"}, {"measurement": "viability, T/C", "setting": "second compound 3.16 µM, first compound 0.000949 µM", "result": 86.2, "unit": "%"}, {"measurement": "viability, T/C", "setting": "second compound 3.16 µM, first compound 0.003 µM", "result": 82.1, "unit": "%"}, {"measurement": "viability, T/C", "setting": "second compound 3.16 µM, first compound 0.00949 µM", "result": 68.3, "unit": "%"}, {"measurement": "viability, T/C", "setting": "second compound 3.16 µM, first compound 0.03 µM", "result": 0.11, "unit": "%"}, {"measurement": "viability, T/C", "setting": "second compound 3.16 µM, first compound 0.0949 µM", "result": 0.04, "unit": "%"}, {"measurement": "viability, T/C", "setting": "second compound 3.16 µM, first compound 0.3 µM", "result": 0.9, "unit": "%"}, {"measurement": "viability, T/C", "setting": "second compound 10 µM, first compound 0.000949 µM", "result": 8.49, "unit": "%"}, {"measurement": "viability, T/C", "setting": "second compound 10 µM, first compound 0.003 µM", "result": 5.28, "unit": "%"}, {"measurement": "viability, T/C", "setting": "second compound 10 µM, first compound 0.00949 µM", "result": 4.74, "unit": "%"}, {"measurement": "viability, T/C", "setting": "second compound 10 µM, first compound 0.03 µM", "result": 0.17, "unit": "%"}, {"measurement": "viability, T/C", "setting": "second compound 10 µM, first compound 0.0949 µM", "result": 0.15, "unit": "%"}, {"measurement": "viability, T/C", "setting": "second compound 10 µM, first compound 0.3 µM", "result": 0.21, "unit": "%"}]}]}
